Series [1] can be described thus: Calcein leakage from LUVs. The settings on record: 37 °C, triplicate; for calcein leakage from zwitterionic ePC:ePE LUVs (in words): melittin as positive control; for calcein leakage from zwitterionic ePC:ePE LUVs: highest peptide:lipid ratio tested. Here is the method:
All four peptides were tested for their ability to induce the release of the self-quenching fluorescent dye, calcein, from calcein-encapsulated LUVs.
Melittin (black), a known lytic peptide from honey-bee venom was used as a positive control. All experiments were carried out in triplicate at 37 °C.
Calcein leakage was performed according to established protocols. Melittin, the principal component of bee venom and a known lytic peptide, was used as a positive control. Calcein leakage was measured for LUVs made from lipid mixtures of ePC:ePG, ePE:ePG or ePC:ePE.

Series [2] has as its system E. coli and S. aureus. Kind of series: Antimicrobial activity, covering both strains. The note with it: for antimicrobial activity (in words): at the concentrations tested. The series is classed as cell-based. Here is the method:
(§1) The antimicrobial activity for gp41w and its derivatives was determined against Gram-negative E. coli and Gram-positive S. aureus strains (Table 1).
(§2) Minimum inhibitory concentrations (MIC) and minimum bactericidal concentrations (MBC) were determined for E. coli and S. aureus as described previously. Hemolytic activity was also determined by using red blood cells from healthy volunteers, as described previously.

A short description of series [3]: Acrylamide quenching of Trp fluorescence (Stern-Volmer constant). More on the design: unit not given here. The note with it: acrylamide titration (aliquots of 4 M acrylamide), 25 °C, three separate trials. Format: physicochemical. Here is the method:
Acrylamide quenching experiments were performed for the four peptides to examine the accessibility of the Trp fluorophores in the various membrane environments. If a Trp side chain inserts into the hydrophobic core of the bilayer, it becomes less accessible to the effects of the soluble acrylamide quencher. The quenching of Trp fluorescence is directly related to the concentration of quencher, so a titration with the neutral acrylamide allows for the calculation of the Stern–Volmer constant (Ksv), which quantitatively measures the accessibility of the Trp residues in various lipid environments.
Intrinsic tryptophan fluorescence of the peptides was measured on a Cary Eclipse Fluorimeter (Agilent Technologies, Victoria, Australia) equipped with a temperature control unit set at 25 °C. Emission spectra were recorded between 300 and 400 nm with an excitation wavelength of 295 nm. Excitation and emission slits were kept at 5 and 10 nm, respectively, for all the peptides except for gp41w-FKA, which has a single Trp residue, and for which both slit widths were maintained at 10 nm. The concentration of SDS and DPC in the fluorescence samples was 25 mM, while the lipid concentration in the LUV samples was 30 μM. Acrylamide titrations were performed to determine Ksv by adding five aliquots of a 4 M acrylamide solution to the sample and recording an emission spectra using the parameters described above. Ksv was calculated by using the formula F0/F = […], Where F0 is the initial fluorescence and F is the fluorescence intensity after the addition of soluble quencher (Q).

Series [4] has as its system red blood cells from healthy volunteers. In words: Hemolytic activity on red blood cells. The note with it: for hemolytic concentration: peptide concentration at which red blood cells were lysed. The series is classed as cell-based, human. Here is the method: as §2
For series [5], the system named is E. coli. The settings on record: for MBC E. coli: minimum bactericidal concentration; for MIC E. coli: minimum inhibitory concentration. Here is the method: as §1, §2
Series [6] deals with S. aureus. The note with it: for MBC S. aureus: minimum bactericidal concentration; for MIC S. aureus: minimum inhibitory concentration. Here is the method:
as §1, §2

The conditions of series [7]: most potent peptide of Lee et al.; cited from earlier work. The source says:
Other de novo strategies for generating AMPs have been reported in the literature. For instance, Lee et al. recently published a study wherein they synthesized short peptides (5-11 residues) composed of only three amino acids: Lys, Leu and Trp. Their results support the notion that the antimicrobial activity of a peptide is related to peptide amphipathicity and helicity as well as to the location of the Trp residues.

The nature of series [8]: Tryptophan emission fluorescence in aqueous buffer. Format: physicochemical. The note with it: 25 °C, excitation 295 nm, a blue-shifted maximum is read as oligomerization in solution. Here is the method:
Tryptophan emission fluorescence of all the gp41w derivatives was performed to examine the microenvironment surrounding the Trp side chains. It is evident that the behaviour of the gp41w peptide is very different from the other peptides. The wavelength of the maximum emission for gp41w occurs at 342 nm, while the other three peptides have maximum emission wavelengths at ~356 nm. The value of 356 nm is normal for an exposed Trp side chain in aqueous solution. […] A shift towards lower wavelengths is usually interpreted as the Trp residue residing in a more hydrophobic environment, which may be due to the gp41w peptides oligomerizing in solution.
Intrinsic tryptophan fluorescence of the peptides was measured on a Cary Eclipse Fluorimeter (Agilent Technologies, Victoria, Australia) equipped with a temperature control unit set at 25 °C. Emission spectra were recorded between 300 and 400 nm with an excitation wavelength of 295 nm. […] The concentration of SDS and DPC in the fluorescence samples was 25 mM, while the lipid concentration in the LUV samples was 30 μM. […] Ksv was calculated by using the formula F0/F = […], Where F0 is the initial fluorescence and F is the fluorescence intensity after the addition of soluble quencher (Q).

For series [9] the following is noted: earlier attempts at an NMR structure; cited from earlier work. The source says: The lack of antimicrobial activity may be related to the fact that the gp41w peptide appears to oligomerize in solution. […] In terms of the antimicrobial activity, gp41w oligomers may be too large to pass through the peptidoglycan layer surrounding Gram-positive bacteria. Additionally, they would have to disassociate into monomers before the ...

For series [10] the following is noted: 4:4:1 CDCl3:methanol-d3:H2O, 1–2 mg in 500 μL; aggregates persisted at higher temperatures.
Experimental: Consequently, we chose to use a cosolvent mixture consisting of four parts deuterated chloroform, four parts deuterated methanol and one part water [19–20].
NMR samples were prepared by dissolving 1–2 mg of lyophilized peptide powder in 500 μL of the miscible cosolvent solution, and then the samples were flame sealed in an NMR tube to avoid evaporation of the organic solvents. Two-dimensional NOESY, TOCSY and COSY spectra were collected at 298 K on a Bruker Avance 700 MHz spectrometer. Mixing times in the NOESY and TOCSY experiments were 100 ms and 120 ms, respectively. Spectra were acquired with 4096 × 600 data points in the F1 and F2 dimensions at a spectral width of 8992.806 Hz. Water suppression was achieved by using excitation sculpting [44].

Where no end group is shown, it is not given here.

In the case of KWARLWRWFRITRWLWYIK-NH2 [gp41w-4R], the “calcein leakage from zwitterionic ePC:ePE LUVs (in words)” value in [1] is on record as “significant leakage”. In series [2] (E. coli and S. aureus), the “antimicrobial activity (in words)” value was “inactive”. In addition, in series [3], the “Ksv (Stern-Volmer constant) in buffer” value is 27.8. Moreover, the “Hemolysis EC50” value in series [4] (effective concentration for 50% hemolysis, red blood cells from healthy volunteers) was in the range of 7 to 14 µg/mL. The “hemolytic concentration” value in series [4] came to 7 µg/mL. Moreover, in [5], the “MBC E. coli” value is above 100 µg/mL and the “MIC E. coli” value was above 100 µg/mL. In addition, in series [6], the “MBC S. aureus” value was above 100 µg/mL and the “MIC S. aureus” value was above 100 µg/mL.
As for KFAKKFKWFAKAAFKFFKK-NH2 [gp41w-FKA], the “calcein leakage from zwitterionic ePC:ePE LUVs” value in series [1] is given as ~ 70%. The “antimicrobial activity (in words)” value in [2] (E. coli and S. aureus) is listed as “significant antimicrobial activity”. The “concentrations of bacteriostatic and bactericidal effects” value in series [2] (range over MIC and MBC of both strains) lay within 10 to 50 µg/mL. In addition, the “Ksv (Stern-Volmer constant) in buffer” value in series [3] worked out at 17.9. Further, the “hemolytic concentration” value in [4] stood at 195 µg/mL. For the same substance, in series [5], the “MBC E. coli” value lay within 40 to 50 µg/mL and the “MIC E. coli” value was 10 to 30 µg/mL. In [6], the “MBC S. aureus” value lay in the range of 20 to 30 µg/mL and the “MIC S. aureus” value was below 10 µg/mL.
Regarding KWAKKWKWFAKAAWKWYKK-NH2 [gp41w-KA], in series [1], the “calcein leakage from zwitterionic ePC:ePE LUVs” value is given as ~ 70%. In series [2] (E. coli and S. aureus), the “antimicrobial activity (in words)” value is “inactive”. Moreover, the “Ksv (Stern-Volmer constant) in buffer” value in [3] turned out to be 16.4. For the same substance, in [4], the “hemolytic concentration” value was found to be 42 µg/mL. Besides, in [5], the “MBC E. coli” value is above 100 µg/mL and the “MIC E. coli” value is above 100 µg/mL. Besides, in series [6], the “MBC S. aureus” value is above 100 µg/mL and the “MIC S. aureus” value was above 100 µg/mL.
Regarding LKWLLKWLL-NH2, the “hemolytic activity (in words)” value in [7] was “significant hemolytic activity”.
In the case of KWASLWNWFNITNWLWYIK-NH2 [gp41w], the “calcein leakage from zwitterionic ePC:ePE LUVs (in words)” value in [1] is “caused leakage, but not to the same extent”. For the same substance, in series [2] (E. coli and S. aureus), the “concentration below which no antimicrobial activity was observed” value was at least 100 µg/mL and the “antimicrobial activity (in words)” value was “inactive”. Moreover, the “wavelength of the maximum Trp emission in aqueous buffer” value in [8] was 342 nm. Further, the “Ksv (Stern-Volmer constant) in buffer” value in [3] stood at 10.3. Further, the “behaviour in aqueous solution or 40% TFE (in words)” value in [9] is recorded as “peptide aggregation or poor solubility”. Besides, in [4], the “concentration below which hemolysis was not observed” value is at least 500 µg/mL. In series [4] (peptide added to red blood cells), the “hemolysis (in words)” value is recorded as “minimal hemolysis”. The “solubility in the cosolvent mixture (in words)” value in [10] is recorded as “did not readily dissolve”. Further, in [5], the “MBC E. coli” value is above 100 µg/mL and the “MIC E. coli” value is above 100 µg/mL. In addition, in series [6], the “MBC S. aureus” value is above 100 µg/mL and the “MIC S. aureus” value is above 100 µg/mL.

Source of the values: PMC3458735, “Design of a novel tryptophan-rich membrane-active antimicrobial peptide from the membrane-proximal region of the HIV glycoprotein, gp41” (Beilstein Journal of Organic Chemistry, 2012).
